This is an account of results in ChEMBL document CHEMBL1201862, “PubChem BioAssay data set” (2004).

The source made the active and inactive calls.

A short description of test [1]: cytotoxicity toward MDA-MB-231 breast cancer cells – cell-based, CellTiter-Glo luminescence, cherry-pick, cytotoxicity control for RAD54 inhibitor project, dose response (AID 651692). In kind it is functional.
For test [2], the target named is T1, DNA repair protein RAD52 homolog (Homo sapiens, UniProt P43351).
T1 sequence (P43351 whole entry): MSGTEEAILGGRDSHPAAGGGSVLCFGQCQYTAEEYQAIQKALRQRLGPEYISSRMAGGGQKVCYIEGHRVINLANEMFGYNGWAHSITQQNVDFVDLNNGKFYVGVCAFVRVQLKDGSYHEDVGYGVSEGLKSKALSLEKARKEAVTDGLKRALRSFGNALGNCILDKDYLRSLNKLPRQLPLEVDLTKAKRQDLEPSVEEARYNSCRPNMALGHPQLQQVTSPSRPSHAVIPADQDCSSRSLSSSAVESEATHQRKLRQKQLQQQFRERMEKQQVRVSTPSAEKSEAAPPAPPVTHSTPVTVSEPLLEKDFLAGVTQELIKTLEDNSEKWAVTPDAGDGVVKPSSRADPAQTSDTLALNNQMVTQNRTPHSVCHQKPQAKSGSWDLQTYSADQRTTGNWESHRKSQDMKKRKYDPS
In kind it is functional, biochemical.

Test [3] addresses T2, DNA repair and recombination protein RAD54-like (Homo sapiens, UniProt Q92698).
T2 sequence (Q92698 whole entry): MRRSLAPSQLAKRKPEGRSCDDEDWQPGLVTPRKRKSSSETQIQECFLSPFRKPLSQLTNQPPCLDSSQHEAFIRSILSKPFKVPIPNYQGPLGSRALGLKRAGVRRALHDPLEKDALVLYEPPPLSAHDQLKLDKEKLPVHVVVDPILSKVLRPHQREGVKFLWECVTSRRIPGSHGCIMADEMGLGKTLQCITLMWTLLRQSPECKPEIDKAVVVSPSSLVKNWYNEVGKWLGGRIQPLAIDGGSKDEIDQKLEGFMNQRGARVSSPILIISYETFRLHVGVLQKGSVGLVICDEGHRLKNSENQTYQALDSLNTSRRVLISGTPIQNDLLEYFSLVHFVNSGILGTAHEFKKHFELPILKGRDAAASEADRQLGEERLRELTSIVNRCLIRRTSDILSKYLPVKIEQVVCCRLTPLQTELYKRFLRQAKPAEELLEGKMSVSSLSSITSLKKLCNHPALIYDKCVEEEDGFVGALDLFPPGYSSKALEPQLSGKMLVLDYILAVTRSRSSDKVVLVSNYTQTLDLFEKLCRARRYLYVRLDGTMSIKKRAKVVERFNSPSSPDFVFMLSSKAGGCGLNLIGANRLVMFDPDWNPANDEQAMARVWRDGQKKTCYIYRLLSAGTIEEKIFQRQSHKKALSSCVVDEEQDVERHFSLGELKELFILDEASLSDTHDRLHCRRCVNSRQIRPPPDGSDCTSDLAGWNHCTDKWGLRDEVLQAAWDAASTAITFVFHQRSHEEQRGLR
The experiment in a line: RAD54 Holliday junction migration blockers – biochemical, fluorescence, cherry-picked samples, dose series, confirmation (AID 651657). The test is classed as functional.

The target in test [4] is T3, Sentrin-specific protease 1 (Homo sapiens, UniProt Q9P0U3).
T3 sequence (Q9P0U3 whole entry): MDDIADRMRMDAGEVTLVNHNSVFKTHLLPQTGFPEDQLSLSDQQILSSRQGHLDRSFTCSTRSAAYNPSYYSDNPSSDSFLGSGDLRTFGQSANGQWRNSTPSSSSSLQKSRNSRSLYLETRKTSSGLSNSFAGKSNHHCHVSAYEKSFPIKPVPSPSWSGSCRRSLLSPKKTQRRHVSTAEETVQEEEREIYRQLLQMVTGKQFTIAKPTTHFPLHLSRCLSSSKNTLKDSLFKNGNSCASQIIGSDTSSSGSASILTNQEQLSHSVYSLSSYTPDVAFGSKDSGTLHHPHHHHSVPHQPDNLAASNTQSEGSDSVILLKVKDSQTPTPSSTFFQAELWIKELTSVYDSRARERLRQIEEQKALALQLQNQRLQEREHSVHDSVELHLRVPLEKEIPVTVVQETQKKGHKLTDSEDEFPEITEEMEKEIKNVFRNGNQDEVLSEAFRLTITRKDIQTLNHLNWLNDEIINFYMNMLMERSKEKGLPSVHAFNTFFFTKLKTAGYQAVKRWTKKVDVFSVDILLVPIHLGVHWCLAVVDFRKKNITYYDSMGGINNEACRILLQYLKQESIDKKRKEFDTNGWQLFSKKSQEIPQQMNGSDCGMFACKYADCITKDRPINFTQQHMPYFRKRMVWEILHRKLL
Description: Dose response confirmation of small molecule inhibitors of the catalytic domain of the SUMO protease, SENP1 in a FRET assay. In kind it is functional. The conditions noted are these: read-out: IC50_Mean.

The target of test [5] is T3, Sentrin-specific protease 1. The experiment in a line: SENP1 catalytic domain blockers, concentration series – biochemical, kinetic FRET, dose response (AID 651697). The test is classed as functional. The following applies: read-out: IC50_Mean.
The target of test [6] is T4, Probable nicotinate-nucleotide adenylyltransferase (Staphylococcus aureus (strain N315), UniProt P65502). In kind it is functional, Staphylococcus aureus subsp. aureus N315.
T4 sequence (P65502 whole entry): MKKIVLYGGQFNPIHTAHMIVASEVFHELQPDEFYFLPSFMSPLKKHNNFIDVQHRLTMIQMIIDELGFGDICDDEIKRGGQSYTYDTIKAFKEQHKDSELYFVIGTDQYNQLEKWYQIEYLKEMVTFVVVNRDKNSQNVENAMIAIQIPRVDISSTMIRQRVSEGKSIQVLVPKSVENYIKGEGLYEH
In test [7] the target is T4, Probable nicotinate-nucleotide adenylyltransferase. In kind it is functional, Staphylococcus aureus subsp. aureus N315. The conditions noted are these: read-out: IC50_Mean.
The target in the next test is Protein Wnt-3a (Mus musculus, UniProt P27467). Description: antagonism of Wnt3a pathway luciferase reporter – Wnt-LIGHT cells, luminescence, selectivity assay for Gli-SUFU antagonist project, dose response (AID 651570).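 Further: Wnt-LIGHT reporter cells stimulated with conditioned medium from Wnt3a-producing cells.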 The test is classed as functional. The conditions noted are these: read-out: IC50_Mean.
Chain of Protein Wnt-3a (P27467 whole entry): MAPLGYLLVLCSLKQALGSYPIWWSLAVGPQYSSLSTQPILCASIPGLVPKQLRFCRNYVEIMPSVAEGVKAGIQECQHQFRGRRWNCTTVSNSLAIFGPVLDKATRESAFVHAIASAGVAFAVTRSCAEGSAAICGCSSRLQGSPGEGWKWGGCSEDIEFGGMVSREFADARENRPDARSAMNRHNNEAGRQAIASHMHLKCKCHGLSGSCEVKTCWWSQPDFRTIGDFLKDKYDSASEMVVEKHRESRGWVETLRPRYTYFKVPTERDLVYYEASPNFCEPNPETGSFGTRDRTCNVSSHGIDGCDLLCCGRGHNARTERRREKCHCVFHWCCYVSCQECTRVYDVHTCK
Test [8] deals with Ras and Rab interactor 1/Tyrosine-protein kinase ABL1 (Homo sapiens, UniProt P00519+Q13671). The test is classed as functional.
Chain of Ras and Rab interactor 1/Tyrosine-protein kinase ABL1 (P00519 whole entry): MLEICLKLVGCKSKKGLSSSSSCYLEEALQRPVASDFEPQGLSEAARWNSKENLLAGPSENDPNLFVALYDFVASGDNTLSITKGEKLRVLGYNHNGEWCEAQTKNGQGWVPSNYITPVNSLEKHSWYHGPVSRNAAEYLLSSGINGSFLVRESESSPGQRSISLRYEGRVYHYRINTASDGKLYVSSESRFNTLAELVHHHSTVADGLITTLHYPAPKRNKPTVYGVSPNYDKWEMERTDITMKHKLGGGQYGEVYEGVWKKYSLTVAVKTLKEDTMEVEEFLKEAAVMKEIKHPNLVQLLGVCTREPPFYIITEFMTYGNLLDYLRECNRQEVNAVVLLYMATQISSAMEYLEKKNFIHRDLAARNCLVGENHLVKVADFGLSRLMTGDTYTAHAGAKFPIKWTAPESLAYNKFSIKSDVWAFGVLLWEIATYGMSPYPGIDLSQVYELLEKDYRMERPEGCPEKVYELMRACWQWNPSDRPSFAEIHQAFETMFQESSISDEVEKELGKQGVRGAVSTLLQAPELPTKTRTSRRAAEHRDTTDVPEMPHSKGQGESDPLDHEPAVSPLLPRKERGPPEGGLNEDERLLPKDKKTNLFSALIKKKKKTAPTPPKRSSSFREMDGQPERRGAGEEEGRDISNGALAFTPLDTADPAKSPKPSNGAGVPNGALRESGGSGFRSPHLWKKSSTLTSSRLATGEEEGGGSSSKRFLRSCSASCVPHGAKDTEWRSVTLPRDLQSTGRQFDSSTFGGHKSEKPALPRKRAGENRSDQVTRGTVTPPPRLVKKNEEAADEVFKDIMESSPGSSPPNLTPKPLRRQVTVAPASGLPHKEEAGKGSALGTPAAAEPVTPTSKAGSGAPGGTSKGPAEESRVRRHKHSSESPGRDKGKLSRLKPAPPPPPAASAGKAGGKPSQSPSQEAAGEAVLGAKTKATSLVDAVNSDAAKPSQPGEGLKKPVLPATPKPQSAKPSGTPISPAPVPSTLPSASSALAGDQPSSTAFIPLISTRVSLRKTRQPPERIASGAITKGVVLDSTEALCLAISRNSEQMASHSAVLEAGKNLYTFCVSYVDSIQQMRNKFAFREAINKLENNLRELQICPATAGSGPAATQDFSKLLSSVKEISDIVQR
Chain of Ras and Rab interactor 1/Tyrosine-protein kinase ABL1 (Q13671 whole entry): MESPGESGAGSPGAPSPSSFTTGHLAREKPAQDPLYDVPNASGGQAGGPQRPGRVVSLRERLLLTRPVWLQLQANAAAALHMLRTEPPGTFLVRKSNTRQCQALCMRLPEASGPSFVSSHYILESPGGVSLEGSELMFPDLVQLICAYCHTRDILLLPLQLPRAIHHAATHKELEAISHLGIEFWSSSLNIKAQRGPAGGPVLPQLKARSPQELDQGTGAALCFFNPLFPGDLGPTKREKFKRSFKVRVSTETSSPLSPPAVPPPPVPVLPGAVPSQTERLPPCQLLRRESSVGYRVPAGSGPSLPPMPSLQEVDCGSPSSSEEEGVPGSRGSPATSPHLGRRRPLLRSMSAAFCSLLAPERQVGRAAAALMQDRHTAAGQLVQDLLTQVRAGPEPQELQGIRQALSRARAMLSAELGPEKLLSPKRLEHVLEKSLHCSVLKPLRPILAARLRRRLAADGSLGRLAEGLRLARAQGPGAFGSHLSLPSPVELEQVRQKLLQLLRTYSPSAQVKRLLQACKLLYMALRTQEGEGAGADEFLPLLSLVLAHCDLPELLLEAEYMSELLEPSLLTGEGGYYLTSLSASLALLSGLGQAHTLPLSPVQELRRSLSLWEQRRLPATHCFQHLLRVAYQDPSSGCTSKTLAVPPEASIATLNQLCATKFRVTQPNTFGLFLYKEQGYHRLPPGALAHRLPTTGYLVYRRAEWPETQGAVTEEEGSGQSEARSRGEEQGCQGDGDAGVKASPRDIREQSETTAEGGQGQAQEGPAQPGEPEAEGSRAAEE
Test [9] has as its target T5, ATP-dependent translocase ABCB1 (Homo sapiens, UniProt P08183). The experiment in a line: inhibition of BCRP-mediated JC-1 efflux – Ig-MXP3 cells, flow cytometry, set 2, dose response (AID 504566).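 Further: flow cytometry median green fluorescence of retained JC-1 dye; potency of efflux pump inhibition measured as rising substrate retention.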 The test is classed as functional. The following applies: read-out: EC50_MICROM_.
For test [10], the target named is T5, ATP-dependent translocase ABCB1. The experiment in a line: P-gp JC-1 efflux blockade concentration-response – Jurkat-DNR cells, flow cytometry, set 2, dose response (AID 504569).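 Further: potency of pump inhibitors that raise cellular JC-1 green fluorescence up to the nicardipine level.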 The conditions noted are these: read-out: EC50_MICROM_. The test is classed as functional.
For test [11], the target named is T6, Mitochondrial peptide methionine sulfoxide reductase (Bos taurus, UniProt P54149).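 Further: absorbance read-out, biochemical high-throughput dose-response screen for MsrA inhibitors, confirmatory; recombinant bovine MsrA coupled to E. coli TrxB with NADPH and selenocystamine; potency is for inhibitors of MsrA activity on DMSO substrate.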
T6 sequence (P54149 whole entry): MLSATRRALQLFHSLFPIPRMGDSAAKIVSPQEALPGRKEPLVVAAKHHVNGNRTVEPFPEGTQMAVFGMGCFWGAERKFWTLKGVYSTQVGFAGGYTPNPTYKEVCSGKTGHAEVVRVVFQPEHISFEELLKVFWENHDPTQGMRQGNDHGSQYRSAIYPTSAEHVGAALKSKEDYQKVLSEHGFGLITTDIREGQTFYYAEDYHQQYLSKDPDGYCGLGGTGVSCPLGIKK
In kind it is functional.

Test [12] deals with T7, Neuropeptide Y receptor type 2 (Homo sapiens, UniProt P49146).
T7 sequence (P49146 whole entry): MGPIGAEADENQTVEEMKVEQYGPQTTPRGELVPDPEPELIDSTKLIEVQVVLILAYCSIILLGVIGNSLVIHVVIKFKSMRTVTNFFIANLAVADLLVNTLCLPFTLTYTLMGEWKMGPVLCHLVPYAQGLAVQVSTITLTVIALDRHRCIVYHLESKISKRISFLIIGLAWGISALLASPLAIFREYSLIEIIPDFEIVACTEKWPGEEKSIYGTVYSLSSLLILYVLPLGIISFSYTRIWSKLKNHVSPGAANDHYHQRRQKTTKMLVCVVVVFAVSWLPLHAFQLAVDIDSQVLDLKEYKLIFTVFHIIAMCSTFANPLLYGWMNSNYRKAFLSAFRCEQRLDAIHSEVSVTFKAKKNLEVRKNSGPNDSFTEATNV
In kind it is functional, cell-based.

The target of test [13] is T8, Neuropeptide Y receptor type 1 (Homo sapiens, UniProt P25929).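 Further: HEK293 cells with a CNG channel challenged with NPY then isoproterenol; potency as antagonist that reverses NPY suppression of cAMP signal.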
T8 sequence (P25929 whole entry): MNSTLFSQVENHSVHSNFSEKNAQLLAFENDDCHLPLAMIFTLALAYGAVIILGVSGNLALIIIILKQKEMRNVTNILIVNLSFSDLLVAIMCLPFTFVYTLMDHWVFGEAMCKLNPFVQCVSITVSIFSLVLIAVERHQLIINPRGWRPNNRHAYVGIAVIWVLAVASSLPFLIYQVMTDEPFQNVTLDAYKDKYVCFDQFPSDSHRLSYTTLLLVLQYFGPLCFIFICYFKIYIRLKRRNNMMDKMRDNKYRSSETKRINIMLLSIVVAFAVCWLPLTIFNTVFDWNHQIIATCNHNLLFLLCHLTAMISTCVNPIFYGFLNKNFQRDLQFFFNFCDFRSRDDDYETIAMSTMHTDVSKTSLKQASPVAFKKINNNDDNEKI
In kind it is functional.

For test [14], the target named is T9, Low molecular weight phosphotyrosine protein phosphatase (Homo sapiens, UniProt P24666). The test is classed as functional. The conditions noted are these: read-out: IC50_Mean.
T9 sequence (P24666 whole entry): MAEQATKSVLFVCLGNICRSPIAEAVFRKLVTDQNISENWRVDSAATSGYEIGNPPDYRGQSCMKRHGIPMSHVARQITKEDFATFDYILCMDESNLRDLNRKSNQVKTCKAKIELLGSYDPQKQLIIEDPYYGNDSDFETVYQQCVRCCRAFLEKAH
In test [15] the target is T9, Low molecular weight phosphotyrosine protein phosphatase. The test is classed as functional. The conditions noted are these: read-out: IC50_Mean. This is another data set of the same source.

T5 sequence (P08183 whole entry): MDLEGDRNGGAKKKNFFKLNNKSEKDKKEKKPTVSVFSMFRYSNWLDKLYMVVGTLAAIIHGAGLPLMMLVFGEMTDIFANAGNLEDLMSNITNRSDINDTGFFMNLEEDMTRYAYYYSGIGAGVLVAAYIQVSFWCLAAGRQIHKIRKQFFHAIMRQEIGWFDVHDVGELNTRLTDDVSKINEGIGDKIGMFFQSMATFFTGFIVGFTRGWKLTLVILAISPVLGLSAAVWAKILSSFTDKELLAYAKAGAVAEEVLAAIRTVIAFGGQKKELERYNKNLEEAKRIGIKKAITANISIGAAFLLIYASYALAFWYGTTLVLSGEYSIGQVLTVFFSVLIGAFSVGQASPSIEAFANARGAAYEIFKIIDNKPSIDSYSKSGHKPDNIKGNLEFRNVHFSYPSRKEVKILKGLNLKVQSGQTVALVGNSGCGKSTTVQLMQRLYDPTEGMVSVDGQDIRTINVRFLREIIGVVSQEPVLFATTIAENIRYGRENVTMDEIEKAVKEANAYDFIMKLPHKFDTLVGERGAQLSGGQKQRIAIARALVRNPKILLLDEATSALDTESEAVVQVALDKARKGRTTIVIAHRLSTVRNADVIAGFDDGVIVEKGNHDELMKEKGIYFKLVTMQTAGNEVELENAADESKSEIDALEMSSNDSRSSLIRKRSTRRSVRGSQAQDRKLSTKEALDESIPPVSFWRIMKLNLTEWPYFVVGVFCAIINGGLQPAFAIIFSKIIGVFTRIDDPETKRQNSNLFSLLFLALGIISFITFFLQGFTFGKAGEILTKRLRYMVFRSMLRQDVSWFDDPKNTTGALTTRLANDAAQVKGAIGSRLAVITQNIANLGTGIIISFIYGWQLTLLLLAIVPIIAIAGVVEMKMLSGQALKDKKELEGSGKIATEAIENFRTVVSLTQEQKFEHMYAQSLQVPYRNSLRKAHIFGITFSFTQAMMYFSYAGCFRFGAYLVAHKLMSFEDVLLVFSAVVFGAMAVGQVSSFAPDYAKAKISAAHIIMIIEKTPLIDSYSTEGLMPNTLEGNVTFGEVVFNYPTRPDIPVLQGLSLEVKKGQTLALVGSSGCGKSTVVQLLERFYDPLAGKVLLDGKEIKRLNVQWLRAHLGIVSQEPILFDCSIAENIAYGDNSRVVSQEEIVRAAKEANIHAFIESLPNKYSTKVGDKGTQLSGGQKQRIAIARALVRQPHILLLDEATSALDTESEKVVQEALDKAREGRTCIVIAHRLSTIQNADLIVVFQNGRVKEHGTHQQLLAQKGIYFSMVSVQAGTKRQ

As to `COc1ccc(OC)c2sc(N(CCN(C)C)C(=O)c3ccc4ccccc4c3)nc12`, the AC50 in test [1] is 32.7 µM (active); in [2] it was 10.7 µM (active); in test [3] it was 58.4 µM (active).
In the case of `CCc1nnc(NC(=O)CCN2C(=O)/C(=C/c3cc(OC)c(OC)c(OC)c3)SC2=S)s1`, the values for the IC50 in test [4] and in test [5] were 13.3 µM (active) and 29.9 µM (inactive), respectively.
Regarding `O=C(NNS(=O)(=O)c1ccc2ccccc2c1)c1cc(-c2ccccn2)nc2ccccc12`, the IC50 was 11.7 µM (active) in test [6] and 28.9 µM (active) in [7].
On to `Cc1ccc2c(c1)c(C)cc[n+]2Cc1ccccc1`, for which, at Protein Wnt-3a, the IC50 was 15.3 µM (active).
In the case of `Cc1cc(S(=O)(=O)N2CCN(C(=O)CCC(=O)N3CCOCC3)CC2)ccc1Br`, the IC50 in test [8] is 21.5 µM (inactive).
In the case of `CC(C)(C)c1cc2nc(C(F)(F)F)cc(N3CCN(C(=O)c4cccs4)CC3)n2n1`, the EC50 is 1.59 µM (active) in test [9] and 6.06 µM (active) in test [10].
Consider `CCc1nnc(S)n1/N=C/c1cc(Br)c(OC)cc1OC`, for which the IC50 in [11] was 155 µM (inactive); in test [12], > 35 µM (not active); in test [13], > 35 µM (not active).
`Oc1c2c(nc3cc(-c4ccc(Cl)cc4)nn13)CCS2`: the IC50 is 16.3 µM (active) in test [14] and 13.4 µM (active) in [15].
